According to patent US11779597B2, “Method of treating Parkinson's and other neurodegenerative diseases” (Vector Vitale IP LLC, priority 2019, dated 2023):

Legend:
peritoneal macrophages = assay: Functional profile of peritoneal macrophages in 6-OHDA rat models after prophylactic administration; format: in vivo; conditions: prophylactic i.p.
Procedure: Methods: Adult mature rodents were used in the study. […] Before prophylactic administration of the experimental drugs, the animals underwent an open field test to assay their general locomotor activity levels and anxiety. The prophylactic course consisted of 10 daily intraperitoneal injections of the drugs (in the case of combination drug, its components were administered at an interval of 2 hours). After the end of prophylactic course, Parkinson's disease was modelled in the animals. […] Ten days after the last (second) apomorphine test, the animals' behavioral responses were assessed in the open field test followed by euthanasia and analysis of functional (metabolic and phenotypic) profiles of phagocytes of different localization. Thus, the study of the functional profile of phagocytes in rat models of Parkinson's disease was performed on day 28 after the end of the course of prophylactic treatment with the experimental drugs. Resident peritoneal macrophages were isolated from sterile cell suspension of peritoneal exudate; enrichment of the suspension was carried out by 2-hour adhesion. Non-adherent and dead cells were separated by centrifugation. Functional characteristics of circulating phagocytes (monocytes and neutrophils) were evaluated in whole blood taken into a tube containing EDTA used as an anticoagulant. Mononuclear and polymorphonuclear phagocytes were analyzed on a flow cytofluorimeter using a gating method. Phagocytes of microglia were isolated using a Percoll density gradient. To assess the phenotypic profile of phagocytes, expression indices of the pan-phagocytic marker CD14 (co-receptor of the bacterial lipopolysaccharide) and the marker of alternative polarization of phagocytes CD206 (mannose receptor 1) were used. To characterize the metabolic profile, oxidative metabolism and phagocytic activity of microglia as well as the pathway of arginine metabolism were studied using flow cytometry and spectrometric methods respectively. FITC-labeled Staphylococcus aureus Wood 46 was used as the object of phagocytosis. The hemogram parameters were analyzed on the hematological analyzer Particle counter model PCE 210 (ERMA, Japan) adapted for the study of blood cells of rats and mice.

circulating leukocytes = assay: Blood count values in LPS rat models; format: in vivo; conditions: day 28
Procedure: On the 1st day of the experiment, rats were either operated to model hemi-parkinsonism or sham operated. From the 9th to the 18th day of the experiment, the animals were injected either deuterium-depleted water or the test substance, according to their allocation into groups, for 10 days. On the 8th day of the experiment (before initiation of treatment—apomorphine test I) and on the 21st day of the experiment (after the end of administering the test substance —apomorphine test II) the animals underwent an apomorphine test to analyze the development of hemi-parkinsonism which correlates with the number of destroyed dopaminergic neurons. In addition, a follow-up analysis of fecal water content was carried out, i.e., before the start of treatment on the 8th day after the operation, as well as on the 21st (after the end of treatment) and the 28th day (before autopsy). On the 24th day of the experiment, behavioral tests were carried out in all groups. All animals were weighed before autopsy. […]
The blood count values were analyzed at the completion of the experiment (day 28). The absolute number of leukocytes, as well as the absolute and relative numbers of lymphocytes, monocytes and neutrophilic granulocytes were calculated.

^64Zn-enriched zinc aspartate [^64Zne-asp]
CD206 expression level in CD14+ peritoneal phagocytes (peritoneal macrophages): further decrease
NO synthesis by peritoneal macrophages (peritoneal macrophages): prevented an increase
arginase activity of peritoneal macrophages (peritoneal macrophages): absence of any changes
phagocytosis by peritoneal macrophages (peritoneal macrophages): prevented an increase
NO synthesis by peritoneal macrophages (peritoneal macrophages; listed as zinc-based drug): decrease
absolute number of circulating leukocytes (circulating leukocytes): did not influence
